Read-outs that look alike come from different tables or passages of the source.
Experiments:
HIV-1 integrase = HIV-1 integrase (Human immunodeficiency virus type 1 group M subtype B, UniProt P12497); experiment: biochemical; assay type: biochemical
Description: In Vitro Integrase Assay.
Integrase reactions were carried out by adding drugs or an equivalent volume of 100% dimethyl sulfoxide (DMSO; used as the drug solvent) to a mixture of 20 nM DNA and 400 nM integrase in 50 mM morpholinepropanesulfonic acid (pH 7.2), 7.5 mM MgCl2, and 14 mM 2-mercaptoethanol. Reactions were performed at 37° C. for 2 h and quenched by the addition of an equal volume of loading buffer (formamide containing 1% sodium dodecyl sulfate, 0.25% bromophenol blue, and xylene cyanol). […] Dried gels were visualized using a Typhoon 8600 (GE Healthcare, Piscataway, N.J.). Densitometric analyses were performed using ImageQuant 5.1 software from GE Healthcare.

in vitro = assay type: cell-based, human; details: human, 50% reduction in the level of ATP in HOS cells
Description: Cellular Cytotoxicity Assay.
On the day of the screen, cells were treated with compounds at the appropriate concentration range chosen and incubated at 37° C. for 48 hrs. Cytotoxicity was measured by monitoring ATP levels via a luciferase reporter assay. Cells were lysed in 50 μL cell lysis buffer (PerkinElmer, Waltham, Mass.) and shaken at 700 rpm at room temperature for 5 mins After the addition of 50 μL of ATPlite buffer (PerkinElmer) directly onto the lysed cells and shaking at 700 rpm at room temperature for 5 mins, ATP levels were monitored by measuring luciferase activity using a microplate reader. Activity was normalized to cytotoxicity in the absence of target compounds. KaleidaGraph (Synergy Software, Reading, Pa.) was used to perform regression analysis on the data. CC50 values were determined from the fit model.

[1] = tested on: HIV-1 constructs containing wild-type IN; experiment: microbe, parasite or virus in culture; assay type: cell-based; details: for EC50: Human immunodeficiency virus 1
Text: (§1) Single-Round HIV-1 Infectivity Assay.
(§2) Human embryonyl kidney cell culture cell line 293 was acquired from the American type Culture Collection (ATCC).
(§3) The virus-containing supernatants were then harvested, clarified by low-speed centrifugation, filtrated, and diluted for preparation in infection assays. […] Activity was normalized to infectivity in the absence of target compounds. KaleidaGraph (Synergy Software, Reading, Pa.) was used to perform regression analysis on the data. EC50 values were determined from the fit model.

[2] = tested on: HIV-1 constructs containing mutant IN N155H; experiment: microbe, parasite or virus in culture; assay type: cell-based; details: for EC50: Human immunodeficiency virus 1
Text: as §1, §2, §3
(§4) pNLNgoMIVR^−ΔEnv.LUC has been described previously (Zhao et al. 2008). The integrase codon reading frame was removed from pNLNgoMIVR^−ΔEnv LUC (between KpnI and SalI sites) and placed between the KpnI and SalI sites of pBluescript II KS+. Using that construct as the wild-type template, we prepared the following HIV-1 Integrase-resistant mutants via the QuikChange II XL (Stratagene, La Jolla, Calif.) site-directed mutagenesis protocol: H51Y, T66I, E92Q, G118R, Y143R, Q148H, Q148K, N155H, R263K, G140S+Q148H, G140A+Q148K, E138K+Q148K, and H51Y+R263K. The following sense with cognate antisense (not shown) oligonucleotides (Integrated DNA Technologies, Coralville, Iowa) were used in the mutagenesis: H51Y, 5′-[…]-3; T66I, 5′-[…]-3′; E92Q, 5′-[…]-3′; G118R, 5′-[…]-3′; E138K, 5′-[…]-3; G140A, 5′-[…]-3; G140S, 5′-[…]-3′; Y143R, 5′-[…]-3′; Q148H, 5′-[…]-3′; Q148K, 5′-[…]-3; N155H, 5′-[…]-3′; R263K 5′-[…]-3′. The double mutation G140S+Q148H was constructed by using the previously generated Q148H mutant and the appropriate oligonucleotide for the 2nd mutation, G140S. The double mutation G140A+Q148K was made by using the Q148K mutant and the appropriate oligonucleotide for the 2nd mutation, G140A. The double mutation E138K+Q148K was made by using the Q148K mutant and the appropriate oligonucleotide for the 2nd mutation, E138K. The double mutation H51Y+R263K was constructed by using the previously generated H51Y mutant and the appropriate oligonucleotides for the 2nd mutation, R263K. The DNA sequence of each construct was verified independently by DNA sequence determination. […] These DNA sequences were additionally checked independently by DNA sequence determination.

[3] = tested on: HIV-1 constructs containing mutant IN Y143R; experiment: microbe, parasite or virus in culture; assay type: cell-based; details: for EC50: Human immunodeficiency virus 1
Text: as §1, §2, §3, §4

[4] = tested on: HIV-1 constructs containing mutant IN G140S-Q148H; experiment: microbe, parasite or virus in culture; assay type: cell-based; details: for EC50: Human immunodeficiency virus 1
Text: as §1, §2, §3, §4

[5] = Table 1, 3′-processing, read-out: IC50 Values 3′-Processing
[6] = Table 1, strand transfer, read-out: IC50 Values Strand transfer
[7] = Table 3, WT IN, read-out: EC50 (nM, WT)
[8] = Table 3, read-out: EC50 (nM, IN Mutants) N155H
[9] = Table 3, read-out: EC50 (nM, IN Mutants) Y143R

SMILES | IC50 (HIV-1 integrase; [5]) | IC50 (HIV-1 integrase; [6]) | CC50 (in vitro; Table 3) | EC50 [1, 7] | EC50 [2, 8] | EC50 [3, 9] | Si (selectivity index) [1] | also measured
O=C(NCc1ccc(F)cc1)c1cc2cccnc2n(O)c1=O [XZ393, N-(4-fluorobenzyl)-1-hydroxy-2-oxo-1,2-dihydro-1,8-naphthyridine-3-carboxamide] | 8.9 ± 1 µM | 0.016 ± 0.003 µM | > 250 µM | 25.1 ± 9.4 nM | 268 ± 89 nM | 24.1 ± 5.3 nM |  | Si (selectivity index) ([1]; Table 3, ratio of CC50 to EC50): >9,960
Nc1c(C(=O)NCc2ccc(F)cc2F)c(=O)n(O)c2ncc(-c3ccccc3)cc12 [XZ420, 4-Amino-N-(2,4-difluorobenzyl)-1-hydroxy-2-oxo-6-phenyl-1,2-dihydro-1,8-naphthyridine-3-carboxamide] |  |  |  |  |  |  |  | IC50 (HIV-1 integrase; Table 7, 3′-processing, read-out: IC50 (μM) 3′-P): 17.9 ± 1.6 µM; IC50 (HIV-1 integrase; Table 7, strand transfer, read-out: IC50 (μM) ST): 0.0016 ± 0.0003 µM; CC50 (in vitro; Table 8): 184 µM; EC50 ([1]; Table 8, WT IN, read-out: EC50 (nM, WT)): 3.4 ± 0.7 nM; EC50 ([4]; Table 8, read-out: EC50 (nM, IN mutants) G140S/Q148H): 39.6 nM; EC50 ([2]; Table 8, read-out: EC50 (nM, IN mutants) N155H): 18.7 nM; EC50 ([3]; Table 8, read-out: EC50 (nM, IN mutants) Y143R): 3.7 nM
O=C(NCc1ccc(F)c(F)c1)c1cc2cccnc2n(O)c1=O [XZ392, N-(3,4-difluorobenzyl)-1-hydroxy-2-oxo-1,2-dihydro-1,8-naphthyridine-3-carboxamide] | 13.6 ± 1.8 µM | 0.017 ± 0.003 µM | > 250 µM | 61.6 ± 13.8 nM | 2200 ± 61 nM | 39.7 ± 12.5 nM | >4,058 | 
O=C(NCc1ccc(F)c(Cl)c1)c1cc2cccnc2n(O)c1=O [XZ391, N-(3-chloro-4-fluorobenzyl)-1-hydroxy-2-oxo-1,2-dihydro-1,8-naphthyridine-3-carboxamide] | 9.4 ± 1.5 µM | 0.014 ± 0.003 µM | > 250 µM | 37.5 ± 14.5 nM | 90.3 ± 5.6 nM | 33.9 ± 5.5 nM | >6,667 | 
O=C(NCc1ccc(F)c(Cl)c1)c1c(O)c2cccnc2n(O)c1=O [XZ365, N-(3-chloro-4-fluorobenzyl)-1,4-dihydroxy-2-oxo-1,2-dihydro-1,8-naphthyridine-3-carboxamide] | 4.7 ± 0.7 µM | 0.027 ± 0.006 µM | 102 ± 17.8 µM | 34.9 ± 12.3 nM | 148 ± 8.3 nM | 53.6 ± 9.2 nM | 2,920 | CC50 (in vitro; Table 2): 102 µM; SI [1]: 2,911; EC50 ([1]; Table 2, cells infected with lentiviral vector harboring WT IN, read-out: EC50): 35 nM; Integrase Mutants SH (G140S-Q148H), fold-change in EC50 relative to WT [4]: 14 x; EC50 ([4]; Table 3, G140S-Q148H double mutant, read-out: EC50 (nM, IN Mutants) SH): 489 ± 61.8 nM; Integrase Mutants N155H, fold-change in EC50 relative to WT [2]: 4 x; Integrase Mutants Y143R, fold-change in EC50 relative to WT [3]: 2 x
O=C(NCc1ccc(F)cc1F)c1c(Nc2ccccc2)c2cccnc2n(O)c1=O [XZ377, N-(2,4-difluorobenzyl)-1-hydroxy-2-oxo-4-(phenylamino)-1,2-dihydro-1,8-naphthyridine-3-carboxamide] |  |  | > 250 µM | 14.2 ± 1.9 nM | 110 ± 17.2 nM | 24.9 ± 6.4 nM | >17,857 | IC50 (HIV-1 integrase; read-out: IC50 (3^+-Processing)): 6.9 ± 1.1 µM; IC50 (HIV-1 integrase; read-out: IC50 (Strand Transfer)): 0.018 ± 0.006 µM
Nc1ccc(-c2ccc(Nc3c(C(=O)NCc4ccc(F)cc4F)c(=O)n(O)c4ncccc34)cc2)cc1 [XZ387, 4-((4′-amino-[1,1′-biphenyl]-4-yl)amino)-N-(2,4-difluorobenzyl)-1-hydroxy-2-oxo-1,2-dihydro-1,8-naphthyridine-3-carboxamide] |  |  | > 250 µM | 6.3 ± 2.4 nM | 423 ± 168 nM | 102 ± 1.4 nM |  | IC50 (HIV-1 integrase; Table 4, 3′-processing, read-out: IC50 (3^+-Processing)): 80 ± 11 µM; IC50 (HIV-1 integrase; Table 4, strand transfer, read-out: IC50 (Strand Transfer)): 0.13 ± 0.02 µM; Si (selectivity index) ([1]; Table 3, ratio of CC50 to EC50): >25,000
